Where two headings read alike, the source gives them in different places.
What was measured:
[1] = test system: MT-4 cells; test: MT-4 proliferation assay; format: cell-based, human
Description: MT-4 Proliferation Assay:
Compounds were tested in a standardized high-throughput 384-well assay format. Each compound was serially diluted 3-fold in 100% DMSO in polypropylene 384-well plates using a Biomek FX Workstation, and 0.4 μL compound added to an assay plate containing 40 μL RPMI media. Compounds were arranged in a horizontal pattern, with 10 concentrations per compound, and 8 compounds added per plate. Due to low DMSO tolerability, the final DMSO concentration never exceeded 0.5% (v/v). Each assay plate contained 10 μM Puromycin and 0.5% DMSO in RPMI-1640 as positive and negative controls respectively. MT-4 cells (HTLV-1 transformed, human T lymphoblastoid cells, NIH Aids Reagent program) were added in volumes of 35 μL per well and 2,000 cells per well using a Biotek uFlow Workstation (Biotek, Winooski, Vt.), and the plates subsequently incubated for 5 days at 37° C. in an incubator set at 5% CO2 and 90% humidity.
After 5 days, 22 μL Cell Titer Glo (Promega) was added to the assay plates with a Biotek uFlow Workstation. Plates were subsequently placed on a Perkin Elmer Envision Plate Reader for 5 minutes before the luminescence signal was read.

[2] = test system: c-Myc produced in MM.1S cells; test: c-Myc down regulation assay (MSD); format: cell-based; conditions: 24 hrs
Description: (§1) c-Myc Down Regulation and MM.1S Viability Assays:
An enzyme linked immunosorbent assay using the Meso Scale Diagnostic (MSD) technology was used to detect levels of c-Myc produced in MM.1S cells (ATCC). MM.1S cells were cultured in RPMI-1640 media (Corning), supplemented with 10% FBS (Hyclone), 1% penicillin-streptomycin (Cellgro), 2-mercaptoethanol (Gibco) and seeded onto 384-tissue culture treated filter binding plates (Millipore) at a density of 40K cells/well containing titrations of small molecule inhibitors or DMSO (0.4%) in a volume of […] of media. After an incubation time of 24 hrs, cells were lysed (1× lysis buffer (Thermo) supplemented with protease and phosophatase inhibitor cocktail (Thermo)) and the plates centrifuged (1000 rpm, 1 min) to capture c-Myc on MSD plates coated with a monoclonal c-Myc antibody (Origene). Assay wells were washed (3× Invitrogen wash buffer) and probed with a polyclonal c-Myc antibody (Abcam) and MSD detection antibody solution in order to detect levels of c-Myc on the MSD platform. c-Myc capture was reported in pg/ml based on a standard curve using recombinant c-Myc protein (Prosci). EC50 values were calculated from the fit of the dose-response curves to a four-parameter equation. All EC50 values represent geometric mean values of a minimum of four determinations. These assays generally produced results within 3-fold of the reported mean.

[3] = test system: MM.1S cells; test: MM.1S viability assay (CellTiter Glo); format: cell-based; conditions: 72 hr, read-out: MM.1S Cell viability (EC50)
Description: as §1
For cell viability in the MM.1S cell line, cells were seeded onto 384-tissue culture treated plates (Greiner) at a density of 60K cells/well containing titrations of small molecule inhibitors or DMSO (0.2%). After 72 hr incubation cells were analyzed for cell viability by addition of CellTiter Glo (Promega) to the assay plates. After 15 min incubation at room temperature the signal from the viable cells was analyzed on an Envision plate reader (Perkin Elmer). EC50 values were calculated from the fit of the dose-response curves to a four-parameter equation. All EC50 values represent geometric mean values of a minimum of four determinations. These assays generally produced results within 3-fold of the reported mean.

[4] = Homo sapiens, MT4, 120 h, Table 2, 5 days, Cell Titer Glo, read-out: MT4 Assay (EC50)

Compound | EC50 ([2]; Homo sapiens, MM1.S) [nM] | EC50 ([3]; Homo sapiens, MM1.S) [nM] | EC50 ([1]; Homo sapiens, MT4, 120 h, read-out: MT4 Assay (EC50, nM)) [nM] | EC50 [1, 4] [nM] | EC50 ([1]; Table 2, 5 days, Cell Titer Glo, read-out: MT4 Assay (EC50)) [nM] | EC50 [2] [nM] | EC50 [3] [nM]
Cc1cccc(C(O)(c2cc(-c3c(C)noc3C)cc3[nH]c(C4CC4)nc23)C2CCCO2)n1 (racemic) [Compound 1020-114, (2-cyclopropyl-6-(3,5-dimethylisoxazol-4-yl)-1H-benzo[d]imidazol-4-yl)(6-methylpyridin-2-yl)(tetrahydrofuran-2-yl)methanol] | 4.8 | 21.2 | 2.5 |  |  |  | 
Cc1noc(C)c1-c1cc(C(O)(c2cccnn2)C2CCCO2)c2nc(C3CC3)[nH]c2c1 (single isomer, unassigned) [Compound 1020-289, (2-cyclopropyl-6-(3,5-dimethylisoxazol-4-yl)-1H-benzo[d]imidazol-4-yl)(pyridazin-3-yl)(tetrahydrofuran-2-yl)methanol] |  |  |  |  | 4.2 | 5.7 | 17.8
Cc1noc(C)c1-c1cc(C(O)(c2ccccc2)c2cccnc2)c2nc(C3CC3)[nH]c2c1 (stereo not drawn) [Compound 1020-112, (2-cyclopropyl-6-(3,5-dimethylisoxazol-4-yl)-1H-benzo[d]imidazol-4-yl)(phenyl)(pyridin-3-yl)methanol] | 56.7 | 145 |  | 18.2 |  |  | 
Cc1noc(C)c1-c1cc(C(O)(c2ccccc2)c2ccccn2)c2nc(C3CC3)[nH]c2c1 (stereo not drawn) [Compound 1020-113, (2-cyclopropyl-6-(3,5-dimethylisoxazol-4-yl)-1H-benzo[d]imidazol-4-yl)(phenyl)(pyridin-2-yl)methanol] | 63.1 | 169 |  | 19.9 |  |  | 
Cc1noc(C)c1-c1cc(C(O)(c2ccccn2)c2ccccn2)c2nc(C3CC3)[nH]c2c1F [Compound 1020-224, (2-cyclopropyl-6-(3,5-dimethylisoxazol-4-yl)-7-fluoro-1H-benzo[d]imidazol-4-yl)di(pyridin-2-yl)methanol] | 104 | 84 |  | 20.5 |  |  | 

Continued, in another order:

EC50 ([2]; Homo sapiens, MM1.S) [nM] | EC50 ([3]; Homo sapiens, MM1.S) [nM] | Compound | EC50 ([1]; Homo sapiens, MT4, 120 h, read-out: MT4 Assay (EC50, nM)) [nM] | EC50 [1, 4] [nM] | EC50 ([1]; Table 2, 5 days, Cell Titer Glo, read-out: MT4 Assay (EC50)) [nM] | EC50 [2] [nM] | EC50 [3] [nM]
33.1 | 47.5 | Cc1noc(C)c1-c1cc(C(O)(c2ccccn2)c2ncccn2)c2nc(C3CC3)[nH]c2c1 (single isomer, unassigned) [Compound 1020-239, (2-cyclopropyl-6-(3,5-dimethylisoxazol-4-yl)-1H-benzo[d]imidazol-4-yl)(pyridin-2-yl)(pyrimidin-2-yl)methanol] |  | 14 |  |  | 
15.3 | 16.9 | Cc1noc(C)c1-c1cc(C(O)(c2cccnn2)C2CCC(C)(C)O2)c2nc(C3CC3)[nH]c2c1 (single isomer, unassigned) [Compound 1020-298, (2-cyclopropyl-6-(3,5-dimethylisoxazol-4-yl)-1H-benzo[d]imidazol-4-yl)(5,5-dimethyltetrahydrofuran-2-yl)(pyridazin-3-yl)methanol] |  | 5.6 |  |  | 
37.3 | 72.8 | Cc1noc(C)c1-c1cc(C(O)(c2nccs2)c2nccs2)c2nc(C3CC3)[nH]c2c1 [Compound 1020-103, (2-cyclopropyl-6-(3,5-dimethylisoxazol-4-yl)-1H-benzo[d]imidazol-4-yl)di(thiazol-2-yl)methanol] |  | 10 |  |  | 
51.5 | 55.5 | Cc1noc(C)c1-c1cc(C(O)(c2ccccn2)c2ccccn2)c2nc(C3CC3)[nH]c2c1 [Compound 1020-104, (2-cyclopropyl-6-(3,5-dimethylisoxazol-4-yl)-1H-benzo[d]imidazol-4-yl)di(pyridin-2-yl)methanol] |  | 12.6 |  |  | 
55.7 | 28.4 | Cc1noc(C)c1-c1cc(C(O)(c2ncccn2)c2ccc(F)cc2F)c2nc(C3CC3)[nH]c2c1 (stereo not drawn) [Compound 1020-257, (2-Cyclopropyl-6-(3,5-dimethylisoxazol-4-yl)-1H-benzo[d]imidazol-4-yl)(2,4-difluorophenyl)(pyrimidin-2-yl)methanol] |  | 14.2 |  |  | 
